39 compounds from patent US9458176B2, “Tetrahydroimidazo(1,5-D)[1,4]oxazepine derivative” (Eisai R&D Management Co., Ltd., priority 2013, dated 2016) can be followed below.

Each structure is given as a SMILES string.

The target in one assay is human mGluR2 (Homo sapiens (Human), UniProt Q14416). Description: [35S]GTPγS binding assay (Affinity to mGluR2). Type of assay: biochemical. The conditions noted are these: cell membrane fraction of HEK293 cells stably expressing human mGluR2; glutamic acid 10 μM. The procedure, abridged: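 Membranes from HEK293 cells stably co-expressing human mGluR2 and SLC1A3 (1.8–3 μg protein) preincubated with compound 30 min at RT, then stimulated with 10 μM glutamate 15 min; [35S]GTPγS (0.8 kBq) with WGA-SPA beads 1 h, buffer with 3 μM GDP, 100 mM NaCl, 1 mM MgCl2. IC50 from inhibition of glutamate-specific binding.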
Sequence of human mGluR2 (Q14416 19-872): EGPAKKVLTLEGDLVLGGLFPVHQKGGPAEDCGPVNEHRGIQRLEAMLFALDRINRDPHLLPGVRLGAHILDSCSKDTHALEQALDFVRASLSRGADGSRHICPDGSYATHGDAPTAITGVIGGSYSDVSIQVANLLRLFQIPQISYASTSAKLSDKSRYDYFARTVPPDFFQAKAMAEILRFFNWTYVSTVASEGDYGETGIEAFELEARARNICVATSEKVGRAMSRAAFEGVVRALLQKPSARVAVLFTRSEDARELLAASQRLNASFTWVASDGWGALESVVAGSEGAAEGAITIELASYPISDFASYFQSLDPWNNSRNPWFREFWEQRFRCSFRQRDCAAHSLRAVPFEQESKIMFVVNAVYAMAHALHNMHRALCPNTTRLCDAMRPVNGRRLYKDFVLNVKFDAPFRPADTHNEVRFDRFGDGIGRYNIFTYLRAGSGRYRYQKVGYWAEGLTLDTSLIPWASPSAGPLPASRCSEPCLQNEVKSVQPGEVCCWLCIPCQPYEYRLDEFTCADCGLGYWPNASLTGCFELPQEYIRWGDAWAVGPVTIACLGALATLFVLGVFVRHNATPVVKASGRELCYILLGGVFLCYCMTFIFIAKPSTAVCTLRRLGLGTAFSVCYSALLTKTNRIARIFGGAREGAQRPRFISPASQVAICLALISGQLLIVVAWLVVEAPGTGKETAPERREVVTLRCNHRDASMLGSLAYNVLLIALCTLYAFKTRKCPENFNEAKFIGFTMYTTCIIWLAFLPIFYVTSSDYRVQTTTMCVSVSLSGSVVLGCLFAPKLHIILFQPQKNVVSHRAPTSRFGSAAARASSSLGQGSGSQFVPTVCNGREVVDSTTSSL
As a reminder, the IC50 is the point on the concentration scale where inhibition reaches its midpoint. High values mean lower potency, low ones higher potency. Turning to `COc1cc(-c2nc(-c3cc(C)nc(C)c3)c3n2CCOCC3)ccc1Cl` [Example 44], the concentration for half-maximal inhibition (IC50) came to 22.3 nM.

Regarding `COc1cc(-c2nc(-c3cc(C)nc(C)c3)c3n2C[C@@H](C)OCC3)ccc1C(F)(F)F` [Example 7, (R)-1-(2,6-dimethylpyridin-4-yl)-3-(3-methoxy-4-(trifluoromethyl)phenyl)-6-methyl-5,6,8,9-tetrahydroimidazo[1,5-d][1,4]oxazepine], the IC50 came out at 4.2 nM.

In turn, `COc1cc(-c2nc(-c3cc(C)nc(C)c3)c3n2C[C@@H](C)OCC3)ccc1Cl` [Example 1, (R)-3-(4-chloro-3-methoxyphenyl)-1-(2,6-dimethylpyridin-4-yl)-6-methyl-5,6,8,9-tetrahydroimidazo[1,5-d][1,4]oxazepine] registered an IC50 of 10 nM.

For `Cc1cc(-c2nc(-c3ccc(OC(F)F)c(C)c3)n3c2CCO[C@H](C)C3)cc(C)n1` [Example 14, (R)-3-(4-(difluoromethoxy)-3-methylphenyl)-1-(2,6-dimethylpyridin-4-yl)-6-methyl-5,6,8,9-tetrahydroimidazo[1,5-d][1,4]oxazepine], the IC50 was 5.6 nM.

The compound `Cc1cc(-c2nc(-c3ccc(Cl)c(F)c3)n3c2CCO[C@H](C)C3)cc(CF)n1` [Example 87] returned an IC50 of 22 nM.

In turn, `COc1cc(-c2nc(-c3cc(C)nc(C(F)F)c3)c3n2C[C@@H](CF)OCC3)ccc1C(F)(F)F` [Example 31, (S)-1-(2-(difluoromethyl)-6-methylpyridin-4-yl)-6-(fluoromethyl)-3-(3-methoxy-4-(trifluoromethyl)phenyl)-5,6,8,9-tetrahydroimidazo[1,5-d][1,4]oxazepine] displayed an IC50 of 7.9 nM.

In turn, `Cc1cc(-c2nc(-c3ccc(F)c(OCC4CC4)c3)n3c2CCO[C@H](C)C3)cc(C)n1` [Example 6, (R)-3-(3-cyclopropylmethoxy-4-fluorophenyl)-1-(2,6-dimethylpyridin-4-yl)-6-methyl-5,6,8,9-tetrahydroimidazo[1,5-d][1,4]oxazepine] displayed an IC50 of 13 nM.

In the case of `Cc1cc(-c2nc(-c3ccc(F)c(Cl)c3)n3c2CCO[C@H](C)C3)cc(C)n1` [Example 138], the 50% inhibitory concentration (IC50) was 21.2 nM.

`Cc1cc(-c2nc(-c3ccc(C(F)(F)F)c(Cl)c3)n3c2CCO[C@H](C)C3)ccn1` [Example 132] gave an IC50 of 33.3 nM.

The compound `COc1cc(-c2nc(-c3ccnc(C)c3)c3n2CCOCC3)ccc1C(F)(F)F` [Example 123] yielded a concentration for half-maximal inhibition (IC50) of 36 nM.

As for `COc1cc(-c2nc(-c3ccnc(C)c3)c3n2C[C@@H](C)OCC3)ccc1OC(F)(F)F` [Example 24, (R)-3-(3-methoxy-4-(trifluoromethoxy)phenyl)-6-methyl-1-(2-methylpyridin-4-yl)-5,6,8,9-tetrahydroimidazo[1,5-d][1,4]oxazepine], the half-inhibitory concentration (IC50) was found to be 4.8 nM.

Compound `Cc1cc(-c2nc(-c3ccc(OC(C)C)c(Cl)c3)n3c2CCO[C@H](C)C3)cc(C)n1` [Example 35, (R)-3-(3-chloro-4-isopropoxyphenyl)-1-(2,6-dimethylpyridin-4-yl)-6-methyl-5,6,8,9-tetrahydroimidazo[1,5-d][1,4]oxazepine] registered a 50% inhibitory concentration (IC50) of 2.7 nM.

Compound `Cc1cc(-c2nc(-c3ccc(C(F)(F)F)c(F)c3)n3c2CCO[C@H](C)C3)ccn1` [Example 139] showed a half-inhibitory concentration (IC50) of 47.5 nM.

`Cc1cc(-c2nc(-c3ccc(Cl)c(C)c3)n3c2CCO[C@H](CF)C3)cc(C)n1` [Example 73] showed an IC50 of 24.8 nM.

`CCOc1ccc(-c2nc(-c3cc(C)nc(C)c3)c3n2C[C@@H](C)OCC3)cc1Cl` [Example 34, (R)-3-(3-chloro-4-ethoxyphenyl)-1-(2,6-dimethylpyridin-4-yl)-6-methyl-5,6,8,9-tetrahydroimidazo[1,5-d][1,4]oxazepine]: the concentration for half-maximal inhibition (IC50) was 2.8 nM.

In turn, `Cc1cc(-c2nc(-c3ccc(Cl)c(Cl)c3)n3c2CCO[C@H](C)C3)ccn1` [Example 66] came in with an IC50 of 12.6 nM.

Regarding `CCCOc1cc(-c2nc(-c3cc(C)nc(C)c3)c3n2CCOCC3)ccc1F` [Example 96], the IC50 came to 59.8 nM.

Compound `COc1cc(-c2nc(-c3ccnc(C)c3)c3n2C[C@@H](C)OCC3)ccc1Cl` [Example 114] came in with an IC50 of 19.2 nM.

Take `Cc1cc(-c2nc(-c3ccc(OC4CC4)c(C)c3)n3c2CCO[C@H](C)C3)cc(C)n1` [Example 20, (R)-3-(4-cyclopropoxy-3-methylphenyl)-1-(2,6-dimethylpyridin-4-yl)-6-methyl-5,6,8,9-tetrahydroimidazo[1,5-d][1,4]oxazepine]: the IC50 is 3.4 nM.

Compound `Cc1cc(-c2nc(-c3ccc(OC(F)F)c(C)c3)n3c2CCO[C@H](CF)C3)ccn1` [Example 40, (S)-3-(4-(difluoromethoxy)-3-methylphenyl)-6-(fluoromethyl)-1-(2-methylpyridin-4-yl)-5,6,8,9-tetrahydroimidazo[1,5-d][1,4]oxazepine] yielded an IC50 of 4.7 nM.

`Cc1cc(-c2nc(-c3ccc(Cl)c(C(F)F)c3)n3c2CCOCC3)ccn1` [Example 126] gave a 50% inhibitory concentration (IC50) of 8.4 nM.

As for `Cc1cc(-c2nc(-c3ccnc(F)c3)c3n2CCOCC3)ccc1OC(F)(F)F` [Example 115], the IC50 came to 61.7 nM.

As for `COc1cc(-c2nc(-c3cc(C)nc(C)c3)c3n2C[C@@H](CF)OCC3)ccc1C(F)F` [Example 28, (S)-3-(4-(difluoromethyl)-3-methoxyphenyl)-1-(2,6-dimethylpyridin-4-yl)-6-(fluoromethyl)-5,6,8,9-tetrahydroimidazo[1,5-d][1,4]oxazepine], the concentration for half-maximal inhibition (IC50) turned out to be 16.2 nM.

The compound `Cc1cc(-c2nc(-c3ccc(OC4CC4)c(Cl)c3)n3c2CCOCC3)cc(C)n1` [Example 135] displayed an IC50 of 36.9 nM.

`Cc1cc(-c2nc(-c3ccc(OC(F)(F)F)cc3)n3c2CCOCC3)ccn1` [Example 43]: the concentration for half-maximal inhibition (IC50) stood at 90 nM.

Consider `CCOc1cc(-c2nc(-c3cc(C)nc(C)c3)c3n2C[C@@H](C)OCC3)ccc1C(F)(F)F` [Example 82], for which the IC50 amounted to 1.1 nM.

`Cc1cc(-c2nc(-c3ccc(OC4CC4)c(C)c3)n3c2CCO[C@H](CF)C3)cc(C)n1` [Example 22, (S)-3-(4-cyclopropoxy-3-methylphenyl)-1-(2,6-dimethylpyridin-4-yl)-6-(fluoromethyl)-5,6,8,9-tetrahydroimidazo[1,5-d][1,4]oxazepine]: the IC50 turned out to be 4.1 nM.

As to `COc1cc(-c2nc(-c3cc(C)nc(CF)c3)c3n2C[C@@H](CF)OCC3)ccc1Cl` [Example 91], the IC50 came to 16.1 nM.

Still in this assay, the particulars now being: cell membrane fraction of HEK293 cells stably expressing human mGluR2; glutamic acid 10 μM; inhibition of specific [35S]GTPγS binding.
Regarding `Cc1cc(-c2nc(-c3ccc(OC4COC4)c(Cl)c3)n3c2CCO[C@H](C)C3)cc(C)n1` [Example 232], the IC50 stood at 9.7 nM.

`Cc1cc(-c2nc(-c3ccc(Cl)c(OC(F)F)c3)n3c2CCOCC3)cc(C)n1` [Example 212] yielded an IC50 of 72.5 nM.

Compound `Cc1cc(-c2nc(-c3ccc(OC(F)(F)F)c(C#N)c3)n3c2CCO[C@H](CF)C3)cc(C)n1` [Example 195] showed a half-inhibitory concentration (IC50) of 3.7 nM.

`Cc1cc(-c2nc(-c3ccc(OC4CC4)c(Cl)c3)n3c2CCO[C@H](C)C3)ccn1` [Example 159] had an IC50 of 5 nM.

For `COc1ccc(-c2nc(-c3cc(C)nc(C)c3)c3n2C[C@@H](CF)OCC3)cc1OC(F)(F)F` [Example 175], the 50% inhibitory concentration (IC50) was 18.5 nM.

Turning to `Cc1cc(-c2nc(-c3ccc(F)c(C(F)(F)F)c3)n3c2CCO[C@H](C)C3)ccn1` [Example 151], the half-maximal inhibitory concentration (IC50) amounted to 26.4 nM.

Turning to `CCOc1cc(-c2nc(-c3ccnc(C)c3)c3n2C[C@@H](C)OCC3)ccc1CC` [Example 219], the IC50 was 7.9 nM.

Compound `Cc1cc(-c2nc(-c3ccc(F)c(Cl)c3)n3c2CCO[C@H](CF)C3)cc(C)n1` [Example 171] registered a concentration for half-maximal inhibition (IC50) of 26.7 nM.

The compound `COc1cc(-c2nc(-c3ccnc(C)c3)c3n2C[C@@H](CF)OCC3)ccc1C(F)F` [Example 160] displayed a concentration for half-maximal inhibition (IC50) of 24.1 nM.

Take `Cc1cc(-c2nc(-c3ccc(OCC(F)F)c(Cl)c3)n3c2CCOCC3)cc(C)n1` [Example 218]: the 50% inhibitory concentration (IC50) was 78.8 nM.

In the case of `COc1cc(-c2nc(-c3ccnc(C)c3)c3n2C[C@@H](C)OCC3)ccc1F` [Example 141], the IC50 stood at 51.9 nM.

In another assay the test system is Long-Evans rats. Description: Novel Object Recognition (NOR) test in rats with scopolamine-induced cognitive impairment. Type of assay: in vivo, rat. To be noted: male Long-Evans rats, scopolamine 0.3 mg/kg i.p.; statistically significant difference in discrimination index vs scopolamine alone group. The protocol:
Six-week old male Long-Evans rats were used for this test. For 2 days before starting the test, the rats were acclimated to experimental operations such as administration and a test device (that is, a black or gray plastic cage with a width of 40 cm, a depth of 30 cm and a height of 45 cm). Each test compound was dissolved in a 0.1 N hydrochloric acid to be orally administered. Thirty minutes after the administration, scopolamine hydrobromide was intraperitoneally administered at a 0.3 mg/kg dose, so as to induce cognitive impairment. After another 30 minutes, each rat was acclimated in the test device for 3 minutes, and thereafter, two blocks in the same shape were put in the test device as acquisition trial, and exploring time for each block was measured for 5 minutes. Two hours after the acquisition trial, the rat was acclimated in the test device for 3 minutes, and thereafter, the same block as those used in the acquisition trial and a new block in a different shape were put in the cage for retention trial. The exploring time for each block was measured for 3 minutes, and a ratio of the exploring time for the newly used block to the sum of the exploring times for the respective blocks was calculated as a discrimination index. The thus obtained discrimination indexes were compared among a group of rats to which a medium alone was administered (medium group), a group of rats to which scopolamine alone was administered (scopolamine alone group) and a group of rats to which both the test compound and scopolamine were administered, so as to evaluate the action of the test compound on the novel object recognition function (cognitive function) of the rats.
Each discrimination index was shown as an average and a standard error. The statistical significance between the medium group and the scopolamine alone group was analyzed by the independent t-test. The statistical significance between the scopolamine alone group and each sample group was analyzed by one-way analysis of variance and then by Dunnett's multiple comparison test. The significance level was set to 5% on both sides. […] The analysis was carried out by using Prism 5 for Windows for Japanese, ver. 5.03.
A minimum effective dose at which a statistically significant difference was found between a group suffering from the cognitive impairment induced by scopolamine and a group treated with each compound is shown in Table 10.
`COc1cc(-c2nc(-c3cc(C)nc(C)c3)c3n2CCOCC3)ccc1Cl` [Example 44]: the Minimum effective dose was 1 mg/kg, p.o.

For `COc1cc(-c2nc(-c3cc(C)nc(C)c3)c3n2C[C@@H](C)OCC3)ccc1C(F)(F)F` [Example 7, (R)-1-(2,6-dimethylpyridin-4-yl)-3-(3-methoxy-4-(trifluoromethyl)phenyl)-6-methyl-5,6,8,9-tetrahydroimidazo[1,5-d][1,4]oxazepine], the Minimum effective dose is on record as 0.3 mg/kg, p.o.

As to `COc1cc(-c2nc(-c3cc(C)nc(C)c3)c3n2C[C@@H](C)OCC3)ccc1Cl` [Example 1, (R)-3-(4-chloro-3-methoxyphenyl)-1-(2,6-dimethylpyridin-4-yl)-6-methyl-5,6,8,9-tetrahydroimidazo[1,5-d][1,4]oxazepine], the Minimum effective dose is on record as 3 mg/kg, p.o.

For `Cc1cc(-c2nc(-c3ccc(OC(F)F)c(C)c3)n3c2CCO[C@H](C)C3)cc(C)n1` [Example 14, (R)-3-(4-(difluoromethoxy)-3-methylphenyl)-1-(2,6-dimethylpyridin-4-yl)-6-methyl-5,6,8,9-tetrahydroimidazo[1,5-d][1,4]oxazepine], the Minimum effective dose is given as 1 mg/kg, p.o.

For `Cc1cc(-c2nc(-c3ccc(Cl)c(F)c3)n3c2CCO[C@H](C)C3)cc(CF)n1` [Example 87], the Minimum effective dose is on record as 3 mg/kg, p.o.

Turning to `COc1cc(-c2nc(-c3ccnc(C)c3)c3n2C[C@@H](C)OCC3)ccc1OC(F)(F)F` [Example 24, (R)-3-(3-methoxy-4-(trifluoromethoxy)phenyl)-6-methyl-1-(2-methylpyridin-4-yl)-5,6,8,9-tetrahydroimidazo[1,5-d][1,4]oxazepine], the Minimum effective dose is on record as 1 mg/kg, p.o.
